{"source": "patent US8278074B2", "about": "“L-glutamic acid-producing microorganism and a method for producing L-glutamic acid” (priority 2004, dated 2012)", "assay_type_in_all_cases": "cell-based, Corynebacterium glutamicum", "key": {"[1]": {"test_system": "mutant-type yggB gene-introduced strains (ATCC13869-L30 strain, ATCC13869-A1 strain)", "test": "Resistance to 4-fluoroglutamic acid on a solid medium", "conditions": "minimum plate medium, 7.5 mM 4-fluoroglutamic acid, 31.5° C., compared with wild-type ATCC13869 strain (FIG. 6)", "method": "4-fluoroglutamic acid solution which was adjusted to pH6.7 with NaOH and sterilized with filtration was added to the minimum medium described in Example 4 so that the final concentration of 4-fluoroglutamic acid was 7.5 mM. Each of the ATCC13869 strain, ATCC13869-L30 strain, and ATCC13869-A1 strain was spread over the CM-Dex plate and cultured overnight."}, "ATCC13869-A1 strain": {"test_system": "ATCC13869-A1 strain", "test": "Resistance to 4-fluoroglutamic acid in a liquid medium", "conditions": "minimum liquid medium, 1.25 mM to 20 mM 4-fluoroglutamic acid, 31.5° C., culture without 4-fluoroglutamic acid set to 1 (FIG. 7)", "method": "(§1) 4-fluoroglutamic acid was added into the minimum liquid medium having the same composition as described in Example 4 but not containing agar to the final concentration of 1.25 mM, 2.5 mM, 5 mM, 10 mM, and 20 mM, respectively. Each of the ATCC13869 strain, ATCC13869ΔyggB strain, ATCC13869-L30 strain, and ATCC13869-A1 strain was spread over a CM-Dex plate and cultured at 31.5° C. overnight. Then, cells were collected, and after washing with the sterilized 0.85% NaCl solution, inoculated into the liquid medium and cultured at 31.5° C. with shaking. When the OD660 of each strain cultured without 4-fluoroglutamic acid reached 1.0, the culture was terminated and the obtained culture solution was diluted appropriately and spread over the CM-Dex plate overnight. The number of colonies which appeared were calculated and designated as a viable cell number."}, "ATCC13869-L30 strain": {"test_system": "ATCC13869-L30 strain", "test": "Resistance to 4-fluoroglutamic acid in a liquid medium", "conditions": "minimum liquid medium, 1.25 mM to 20 mM 4-fluoroglutamic acid, 31.5° C., culture without 4-fluoroglutamic acid set to 1 (FIG. 7)", "method": "as §1"}}, "data": [{"smiles": "N[C@@H](CC(F)C(=O)O)C(=O)O", "note": "(stereo partly drawn) [4-fluoroglutamic acid]", "values": [{"measurement": "growth in the presence of 4-fluoroglutamic acid", "setting": "[1]", "value": "grow faster than wild-type ATCC13869 strain"}, {"measurement": "sensitivity to 4-fluoroglutamic acid (relative viable cell number)", "setting": "ATCC13869-A1 strain", "value": "decreased sensitivity"}, {"measurement": "sensitivity to 4-fluoroglutamic acid (relative viable cell number)", "setting": "ATCC13869-L30 strain", "value": "decreased sensitivity"}]}]}
